Assays:
[1] = molecular target: T1, Myosin light chain kinase family member 4 (Homo sapiens) (UniProt Q86YV6); experiment: Selectivity interaction (KinomeScan (DiscoverX)) EUB0000666a MYLK4; conditions: at 10 µM
T1 sequence (whole entry): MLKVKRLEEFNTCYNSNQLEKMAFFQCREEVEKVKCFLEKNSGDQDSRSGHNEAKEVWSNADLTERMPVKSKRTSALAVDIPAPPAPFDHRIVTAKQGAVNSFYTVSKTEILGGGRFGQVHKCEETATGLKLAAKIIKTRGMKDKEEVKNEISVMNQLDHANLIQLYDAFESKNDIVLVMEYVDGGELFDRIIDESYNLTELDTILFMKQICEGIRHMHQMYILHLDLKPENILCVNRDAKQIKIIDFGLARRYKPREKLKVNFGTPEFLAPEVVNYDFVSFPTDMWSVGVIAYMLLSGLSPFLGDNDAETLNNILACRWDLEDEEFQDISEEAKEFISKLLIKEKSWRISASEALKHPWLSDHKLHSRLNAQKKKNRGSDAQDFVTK

[2] = molecular target: T2, Mitogen-activated protein kinase 15 (Homo sapiens) (UniProt Q8TD08); experiment: Selectivity interaction (KinomeScan (DiscoverX)) EUB0000666a MAPK15; conditions: at 10 µM
T2 sequence (whole entry): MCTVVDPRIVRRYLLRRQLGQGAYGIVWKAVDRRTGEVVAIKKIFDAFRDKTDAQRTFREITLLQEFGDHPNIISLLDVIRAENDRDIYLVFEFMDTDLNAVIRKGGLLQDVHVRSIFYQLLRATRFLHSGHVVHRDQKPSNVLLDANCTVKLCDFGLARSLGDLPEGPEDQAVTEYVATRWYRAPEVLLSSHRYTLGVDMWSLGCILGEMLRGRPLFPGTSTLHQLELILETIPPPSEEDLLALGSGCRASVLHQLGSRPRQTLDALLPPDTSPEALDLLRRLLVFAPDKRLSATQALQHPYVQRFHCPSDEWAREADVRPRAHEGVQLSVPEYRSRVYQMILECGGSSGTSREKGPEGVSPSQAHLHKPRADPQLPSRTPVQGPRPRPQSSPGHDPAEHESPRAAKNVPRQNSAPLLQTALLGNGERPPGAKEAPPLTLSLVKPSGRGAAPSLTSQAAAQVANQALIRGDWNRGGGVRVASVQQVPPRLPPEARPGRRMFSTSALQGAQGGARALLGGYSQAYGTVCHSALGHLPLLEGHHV

[3] = molecular target: Tyrosine-protein kinase BTK (Homo sapiens, UniProt Q06187); experiment: Selectivity interaction (Kinome Scan (DiscoverX)) EUB0000229b BTK; conditions: at 10 µM
[4] = molecular target: T3, Mitogen-activated protein kinase kinase kinase 2 (Homo sapiens) (UniProt Q9Y2U5); experiment: Selectivity interaction (Kinase panel (Invitrogen)) EUB0000639a MAP3K2; conditions: at 200 nM
T3 sequence (whole entry): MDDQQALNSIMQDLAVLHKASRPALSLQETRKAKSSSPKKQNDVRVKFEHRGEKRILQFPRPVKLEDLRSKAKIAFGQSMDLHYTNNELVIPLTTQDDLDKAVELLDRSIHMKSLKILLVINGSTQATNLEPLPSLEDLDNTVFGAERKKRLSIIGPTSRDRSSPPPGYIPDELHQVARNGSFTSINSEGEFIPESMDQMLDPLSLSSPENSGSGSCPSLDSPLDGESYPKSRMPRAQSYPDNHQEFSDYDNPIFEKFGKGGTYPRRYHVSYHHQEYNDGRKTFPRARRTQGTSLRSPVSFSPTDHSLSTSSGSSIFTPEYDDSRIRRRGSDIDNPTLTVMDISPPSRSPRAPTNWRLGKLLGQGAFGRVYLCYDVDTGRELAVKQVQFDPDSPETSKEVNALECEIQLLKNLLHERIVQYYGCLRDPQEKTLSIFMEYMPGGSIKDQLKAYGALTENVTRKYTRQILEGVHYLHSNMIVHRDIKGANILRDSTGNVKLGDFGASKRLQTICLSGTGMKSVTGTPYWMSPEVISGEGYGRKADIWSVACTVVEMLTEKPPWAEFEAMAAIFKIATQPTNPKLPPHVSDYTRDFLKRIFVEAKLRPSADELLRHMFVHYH

[5] = molecular target: T4, MAP kinase-activated protein kinase 5 (Homo sapiens) (UniProt Q8IW41); experiment: Selectivity interaction (Kinase panel (Invitrogen)) EUB0000639a MAPKAPK5; conditions: at 200 nM
T4 sequence (whole entry): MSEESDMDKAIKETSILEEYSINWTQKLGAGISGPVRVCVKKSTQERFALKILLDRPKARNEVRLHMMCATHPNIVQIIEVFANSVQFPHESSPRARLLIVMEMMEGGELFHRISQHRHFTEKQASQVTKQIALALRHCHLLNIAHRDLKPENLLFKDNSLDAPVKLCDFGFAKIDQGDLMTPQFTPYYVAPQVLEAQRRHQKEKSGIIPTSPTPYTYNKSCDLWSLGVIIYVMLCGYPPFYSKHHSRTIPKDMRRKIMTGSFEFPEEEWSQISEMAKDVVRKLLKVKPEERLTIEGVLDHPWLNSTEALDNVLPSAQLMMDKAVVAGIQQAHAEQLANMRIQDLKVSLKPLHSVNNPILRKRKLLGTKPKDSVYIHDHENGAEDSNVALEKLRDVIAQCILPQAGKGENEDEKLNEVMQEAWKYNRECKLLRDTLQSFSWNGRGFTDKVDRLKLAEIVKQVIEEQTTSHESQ

[6] = molecular target: Mitogen-activated protein kinase 9 (Homo sapiens, UniProt P45984); experiment: Selectivity interaction (ActivX KiNativ screen (kinase selectivity in THP-1 cell lysates)) EUB0000639a MAPK9; type: subcellular; conditions: lysate, at 0.01 µM
Mitogen-activated protein kinase 9, sequence (P45984 whole entry, looked up): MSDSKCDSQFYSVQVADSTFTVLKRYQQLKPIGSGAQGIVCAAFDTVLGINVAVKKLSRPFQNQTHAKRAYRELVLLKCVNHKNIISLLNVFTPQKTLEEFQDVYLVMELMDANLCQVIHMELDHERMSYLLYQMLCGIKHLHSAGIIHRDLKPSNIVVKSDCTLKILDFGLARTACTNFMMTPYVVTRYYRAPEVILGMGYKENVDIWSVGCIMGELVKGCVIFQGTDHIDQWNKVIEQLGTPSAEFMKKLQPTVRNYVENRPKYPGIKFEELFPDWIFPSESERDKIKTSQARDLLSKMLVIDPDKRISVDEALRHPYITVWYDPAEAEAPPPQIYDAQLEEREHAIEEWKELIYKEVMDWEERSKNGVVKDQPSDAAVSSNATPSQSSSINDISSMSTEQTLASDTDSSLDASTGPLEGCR

Tyrosine-protein kinase BTK, sequence (Q06187 whole entry): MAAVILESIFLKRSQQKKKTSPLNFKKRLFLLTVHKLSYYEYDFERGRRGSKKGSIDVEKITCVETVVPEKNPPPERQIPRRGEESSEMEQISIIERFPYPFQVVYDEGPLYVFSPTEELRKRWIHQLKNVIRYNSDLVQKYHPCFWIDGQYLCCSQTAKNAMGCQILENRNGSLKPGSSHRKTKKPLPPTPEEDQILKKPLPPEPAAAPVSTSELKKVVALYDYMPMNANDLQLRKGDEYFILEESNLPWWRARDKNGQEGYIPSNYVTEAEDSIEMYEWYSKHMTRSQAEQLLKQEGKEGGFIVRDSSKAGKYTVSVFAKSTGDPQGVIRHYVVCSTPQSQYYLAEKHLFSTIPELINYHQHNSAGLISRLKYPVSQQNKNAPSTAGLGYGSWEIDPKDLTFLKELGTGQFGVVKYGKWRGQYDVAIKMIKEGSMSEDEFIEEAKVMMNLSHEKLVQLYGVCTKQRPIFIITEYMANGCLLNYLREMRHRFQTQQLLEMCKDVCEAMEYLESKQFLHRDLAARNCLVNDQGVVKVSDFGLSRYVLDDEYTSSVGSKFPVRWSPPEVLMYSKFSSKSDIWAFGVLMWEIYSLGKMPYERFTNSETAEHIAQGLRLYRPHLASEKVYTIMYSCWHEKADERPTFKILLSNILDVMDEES

SMILES: O=C(NOC[C@H](O)CO)c1ccc(F)c(F)c1Nc1ccc(I)cc1F
- % of control [1]: 100%
- % of control [2]: 100%

SMILES: COc1cc(N(C)c2ccnc3ccc(C(F)(F)F)cc23)cc(OC)c1OC
- % binding [3]: 100%

SMILES: CC[C@@H]1[C@H](F)C(=O)N[C@@H]1COc1nccc2cc(C(N)=O)c(OC)cc12 [ZIMLOVISERTIB]
- % of inhibition [4]: -4.03%
- % of inhibition [5]: 8.71%
- % of inhibition [6]: -10%

— ChEMBL document CHEMBL5465560, “Selectivity Literature for EUbOPEN Chemogenomic Library” (2024)
